The results in this text go back to US7205305B2, “Inhibitors of p38” (Vertex Pharmaceuticals Incorporated, priority 1996, dated 2007).

One test deals with activated p38 (Homo sapiens, UniProt Q16539). Put plainly: Inhibition of phosphorylation of EGF receptor peptide ("kinase"). The following applies: inhibition of phosphorylation of EGF receptor peptide by activated p38. Format: biochemical. How it is done: This assay was carried out in the presence of 10 mM MgCl2, 25 mM β-glycerophosphate, 10% glycerol and 100 mM HEPES buffer at pH 7.6. […] The stock solution was aliquotted into vials. A fixed volume of DMSO or inhibitor in DMSO (final concentration of DMSO in reaction was 5%) was introduced to each vial, mixed and incubated for 15 minutes at room temperature. EGF receptor peptide, […], a phosphoryl acceptor in p38-catalyzed kinase reaction (1), was added to each vial to a final concentration of 200 μM. The kinase reaction was initiated with ATP (100 μM) and the vials were incubated at 30° C. After 30 minutes, the reactions were quenched with equal volume of 10% trifluoroacetic acid (TFA).
The phosphorylated peptide was quantified by HPLC analysis. Separation of phosphorylated peptide from the unphosphorylated peptide was achieved on a reverse phase column (Deltapak, 5 μm, C18 100D, part no. 011795) with a binary gradient of water and acteonitrile, each containing 0.1% TFA.

Test [1] relates to IL-1 production in LPS-stimulated PBMCs. Nature of the test: Inhibition of IL-1 production in LPS-stimulated PBMCs ("cell"). It counts as cell-based, human. The note with it: Homo sapiens, PBMC. The protocol:
(§1) Inhibitors were serially diluted in DMSO from a 20 mM stock. At least 6 serial dilutions were prepared. Then 4× inhibitor stocks were prepared by adding 4 μl of an inhibitor dilution to 1 ml of RPMI1640 medium/10% fetal bovine serum. The 4× inhibitor stocks contained inhibitor at concentrations of 80 μM, 32 μM, 12.8 μM, 5.12 μM, 2.048 μM, 0.819 μM, 0.328 μM, 0.131 μM, 0.052 μM, 0.021 μM etc. The 4× inhibitor stocks were pre-warmed at 37° C. until use.
(§2) Fresh human blood buffy cells were separated from other cells in a Vacutainer CPT from Becton & Dickinson (containing 4 ml blood and enough DPBS without Mg^2+/Ca^2+ to fill the tube) by centrifugation at 1500×g for 15 min. Peripheral blood mononuclear cells (PBMCs), located on top of the gradient in the Vacutainer, were removed and washed twice with RPMI1640 medium/10% fetal bovine serum. PBMCs were collected by centrifugation at 500×g for 10 min. The total cell number was determined using a Neubauer Cell Chamber and the cells were adjusted to a concentration of 4.8×10^6 cells/ml in cell culture medium (RPMI1640 supplemented with 10% fetal bovine serum).
(§3) We placed 100 μl of cell suspension or whole blood in each well of a 96-well cell culture plate. Then we added 50 μl of the 4× inhibitor stock to the cells. Finally, we added 50 μl of a lipopolysaccharide (LPS) working stock solution (16 ng/ml in cell culture medium) to give a final concentration of 4 ng/ml LPS in the assay. The total assay volume of the vehicle control was also adjusted to 200 μl by adding 50 μl cell culture medium. The PBMC cells or whole blood were then incubated overnight (for 12–15 hours) at 37° C./5% CO2 in a humidified atmosphere.
(§4) The next day the cells were mixed on a shaker for 3–5 minutes before centrifugation at 500×g for 5 minutes. Cell culture supernatants were harvested and analyzed by ELISA for levels of IL-1b (R & D Systems, Quantikine kits, #DBL50), TNF-α (BioSource, #KHC3012), IL-6 (Endogen, #EH2-IL6) and IL-8 (Endogen, #EH2-IL8) according to the instructions of the manufacturer. The ELISA data were used to generate dose-response curves from which IC50 values were derived.

Test [2] relates to TNF production in LPS-stimulated PBMCs. Nature of the test: Inhibition of TNF production in LPS-stimulated PBMCs ("cell"). It counts as cell-based, human. The following applies: Homo sapiens, PBMC. The protocol:
as §1, §2, §3, §4

A value given as a limit tells only on which side of the number the result lay.

activated p38, sequence (Q16539 whole entry): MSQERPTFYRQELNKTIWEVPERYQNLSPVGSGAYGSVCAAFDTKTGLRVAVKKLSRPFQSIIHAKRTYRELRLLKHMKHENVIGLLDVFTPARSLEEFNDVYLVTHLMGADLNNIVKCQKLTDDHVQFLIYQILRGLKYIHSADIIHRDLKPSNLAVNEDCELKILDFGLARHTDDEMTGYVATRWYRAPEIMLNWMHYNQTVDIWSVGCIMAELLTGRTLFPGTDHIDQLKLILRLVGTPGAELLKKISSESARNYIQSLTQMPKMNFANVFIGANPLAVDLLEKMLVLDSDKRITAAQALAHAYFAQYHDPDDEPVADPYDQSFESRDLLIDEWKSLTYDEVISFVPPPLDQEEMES

As usually defined, the IC50 is the point on the concentration scale where inhibition reaches its midpoint. A lower IC50 goes with greater potency. For `O=c1ncn2nc(Sc3ccccc3)ccc2c1-c1ccccc1Cl` [Compound 7], the IC50 was at least 1000 nM against activated p38, at least 500 nM in test [1] and at least 500 nM in test [2].

Regarding `Cc1ccccc1-c1c(=O)ncn2nc(Sc3ccccc3)ccc12` [Compound 8], the results for the half-maximal inhibitory concentration (IC50) (on activated p38; in test [1]; in test [2]) were at least 1000 nM, at least 500 nM and at least 500 nM, respectively.

For `O=c1ncn2nc(Sc3ccccc3)ccc2c1-c1ccc(Cl)c(Cl)c1` [Compound 9], the IC50 against activated p38 is at least 1000 nM; in test [1] it was at least 500 nM; in test [2], at least 500 nM.

As to `COc1ccccc1-c1c(=O)ncn2nc(Sc3ccccc3)ccc12` [Compound 11], the 50% inhibitory concentration (IC50) against activated p38 was at least 1000 nM; in test [1], at least 500 nM; in test [2], at least 500 nM.

As to `Cc1c(Sc2ccccc2)nn2cnc(=O)c(-c3c(Cl)cccc3Cl)c2c1C` [Compound 13], the concentration for half-maximal inhibition (IC50) against activated p38 was at least 1000 nM; in test [1] it was at least 500 nM; in test [2], at least 500 nM.

With `Cc1ccc(Sc2ccc3c(-c4c(Cl)cccc4Cl)c(=O)ncn3n2)cc1` [Compound 14], the results for the IC50 (against activated p38; in test [1]; in test [2]) were at least 1000 nM, 100 to 500 nM and at least 500 nM, respectively.

Regarding `Cc1cccc(Sc2ccc3c(-c4c(Cl)cccc4Cl)c(=O)ncn3n2)c1` [Compound 15], the results for the concentration for half-maximal inhibition (IC50) (against activated p38; in test [1]; in test [2]) were at least 1000 nM, 100 to 500 nM and 100 to 500 nM, respectively.

On to `O=c1ncn2nc(Sc3ccc(Cl)c(Cl)c3)ccc2c1-c1c(Cl)cccc1Cl` [Compound 16], for which the values for the IC50 (at activated p38; in test [1]; in test [2]) were 100 to 1000 nM, at least 500 nM and 100 to 500 nM, respectively.

For `O=c1ncn2nc(Sc3ccccc3)ccc2c1-c1c(F)cccc1F` [Compound 17], the 50% inhibitory concentration (IC50) against activated p38 was at least 1000 nM; in test [1] it was at least 500 nM; in test [2], at least 500 nM.

As for `CC(C)c1ccccc1Sc1ccc2c(-c3c(Cl)cccc3Cl)c(=O)ncn2n1` [Compound 18], the results for the IC50 (against activated p38; in test [1]; in test [2]) were at least 1000 nM, at least 500 nM and at least 500 nM, respectively.

`Cc1ccc(Sc2ccc3c(-c4c(Cl)cccc4Cl)c(=O)ncn3n2)cc1C` [Compound 19]: the half-inhibitory concentration (IC50) is at least 1000 nM at activated p38, at least 500 nM in test [1] and at least 500 nM in test [2].

As for `CCc1ccccc1Sc1ccc2c(-c3c(Cl)cccc3Cl)c(=O)ncn2n1` [Compound 20], the concentration for half-maximal inhibition (IC50) is 100 to 1000 nM against activated p38, at least 500 nM in test [1] and at least 500 nM in test [2].

Turning to `O=c1ncn2nc(Sc3cccc(F)c3)ccc2c1-c1c(Cl)cccc1Cl` [Compound 21], the concentration for half-maximal inhibition (IC50) is 100 to 1000 nM on activated p38, 100 to 500 nM in test [1] and at least 500 nM in test [2].

For `O=c1ncn2nc(Sc3ccccc3)ccc2c1-c1c(F)cccc1C(F)(F)F` [Compound 22], the values for the IC50 (at activated p38; in test [1]; in test [2]) were at least 1000 nM, at least 500 nM and at least 500 nM, respectively.

As for `O=c1ncn2nc(Sc3cccc(Cl)c3)ccc2c1-c1c(Cl)cccc1Cl` [Compound 25], the IC50 is 100 to 1000 nM at activated p38, 100 to 500 nM in test [1] and at least 500 nM in test [2].

`Cc1cc(Cl)ccc1Sc1ccc2c(-c3c(Cl)cccc3Cl)c(=O)ncn2n1` [Compound 28]: the IC50 on activated p38 fell in the range of 100 to 1000 nM; in test [1], 100 to 500 nM; in test [2], 100 to 500 nM.

As for `O=c1ncn2nc(Sc3ccccc3Br)ccc2c1-c1c(Cl)cccc1Cl` [Compound 29], the IC50 against activated p38 lay within 100 to 1000 nM; in test [1] it was 100 to 500 nM; in test [2], 100 to 500 nM.

Turning to `CN(C)C(=O)c1ccccc1Sc1ccc2c(-c3c(Cl)cccc3Cl)c(=O)ncn2n1` [Compound 31], the half-maximal inhibitory concentration (IC50) at activated p38 is at least 1000 nM; in test [1] it was at least 500 nM; in test [2], at least 500 nM.

As to `O=c1ncn2nc(Sc3ccc(F)cc3[N+](=O)[O-])ccc2c1-c1c(Cl)cccc1Cl` [Compound 34], the results for the IC50 (at activated p38; in test [1]; in test [2]) were at least 1000 nM, at least 500 nM and at least 500 nM, respectively.

Regarding `O=c1ncn2nc(Sc3ccc(F)cc3)ccc2c1-c1cc2c(cc1Cl)OCO2` [Compound 39], the IC50 at activated p38 is 100 to 1000 nM; in test [1] it was at least 500 nM; in test [2], at least 500 nM.

Consider `Cc1nc(=O)c(-c2c(Cl)cccc2Cl)c2ccc(Sc3ccc(F)c(Cl)c3)nn12` [Compound 40], for which the 50% inhibitory concentration (IC50) against activated p38 is 100 to 1000 nM; in test [1], 100 to 500 nM; in test [2] it was at least 500 nM.

Turning to `Cc1cc(Sc2ccc3c(-c4c(Cl)cccc4Cl)c(=O)ncn3n2)c(Cl)cc1F` [Compound 41], the half-inhibitory concentration (IC50) (against activated p38; in test [1]; in test [2]) was at most 100 nM each time.

For `COc1cc(Cl)c(-c2c(=O)ncn3nc(Sc4ccc(F)cc4)ccc23)cc1OC` [Compound 43], the IC50 is 100 to 1000 nM at activated p38, at least 500 nM in test [1] and at least 500 nM in test [2].

For `Cc1cc(Cl)c(-c2c(=O)ncn3nc(Sc4ccc(F)cc4)ccc23)cc1C` [Compound 44], the IC50 against activated p38 was 100 to 1000 nM; in test [1], at least 500 nM; in test [2], at least 500 nM.

With `Nc1ccc(-c2c(=O)ncn3nc(Sc4ccc(F)cc4)ccc23)c(Cl)c1` [Compound 46], the IC50 was 100 to 1000 nM at activated p38, at least 500 nM in test [1] and at least 500 nM in test [2].

On to `COc1ccc(-c2c(=O)ncn3nc(Sc4ccc(F)cc4)ccc23)c(Cl)c1` [Compound 47], for which the figures for the IC50 (against activated p38; in test [1]; in test [2]) were 100 to 1000 nM, 100 to 500 nM and at least 500 nM, respectively.

In the case of `NC(=O)C(c1ccc(C(O)c2ccccc2)cn1)c1c(Cl)cccc1Cl` (stereo not shown) [Compound 208], the 50% inhibitory concentration (IC50) in test [1] was 100 to 500 nM.

`NC(=O)C(c1ccc(C(=O)c2ccccc2)cn1)c1c(Cl)cccc1Cl` (stereo not shown) [Compound 209] returned an IC50 in test [1] of at least 500 nM.

Turning to `COc1ccc(-c2cccc(C(C(N)=O)c3c(Cl)cccc3Cl)n2)cc1` (stereo not shown) [Compound 352], the values for the IC50 (on activated p38; in test [1]) were at least 1000 nM and at least 500 nM, respectively.

Consider `NC(=O)C(c1cccc(-c2cc(F)c(F)c(F)c2)n1)c1c(Cl)cccc1Cl` (stereo not shown) [Compound 388], for which the IC50 against activated p38 was at most 100 nM.

The compound `COCOc1cc(F)ccc1-c1cccc(C(C(N)=O)c2c(Cl)cccc2Cl)n1` (stereo not shown) [Compound 389] displayed an IC50 on activated p38 of 100 to 1000 nM.

On activated p38, `NC(=O)C(c1cccc(-c2ccc(F)cc2O)n1)c1c(Cl)cccc1Cl` (stereo not shown) [Compound 390] had a half-maximal inhibitory concentration (IC50) of at least 1000 nM.

`NC(=O)C(c1cccc(-c2ccc(F)cc2C(F)(F)F)n1)c1c(Cl)cccc1Cl` (stereo not shown) [Compound 391] gave an IC50 at activated p38 of 100 to 1000 nM.

For `NC(=O)C(c1cccc(-c2cc(Cl)cc(Cl)c2)n1)c1c(Cl)cccc1Cl` (stereo not shown) [Compound 392], the IC50 on activated p38 was 100 to 1000 nM.

Turning to `COCOCc1cc(F)ccc1-c1cccc(C(C(N)=O)c2c(Cl)cccc2Cl)n1` (stereo not shown) [Compound 393], the 50% inhibitory concentration (IC50) at activated p38 lay in the range of 100 to 1000 nM.

At activated p38, `NC(=O)C(c1cccc(-c2ccc(F)cc2CO)n1)c1c(Cl)cccc1Cl` (stereo not shown) [Compound 394] displayed an IC50 of at most 100 nM.

As to `Cc1cc(-c2cccc(C(C(N)=O)c3c(Cl)cccc3Cl)n2)ccc1F` (stereo not shown) [Compound 395], the half-inhibitory concentration (IC50) at activated p38 was at most 100 nM.

`NC(=O)C(c1cccc(-c2ccc(F)cc2F)n1)c1c(Cl)cccc1Cl` (stereo not shown) [Compound 396] had a concentration for half-maximal inhibition (IC50) against activated p38 of at most 100 nM.

For the compound `NC(=O)C(c1cccc(-c2ccccc2)n1)c1cc2c(cc1Cl)OCO2` (stereo not shown) [Compound 397], the IC50 at activated p38 is at least 1000 nM.

The compound `NC(=O)C(c1cccc(-c2c(F)cc(F)cc2F)n1)c1c(Cl)cccc1Cl` (stereo not shown) [Compound 399] registered a 50% inhibitory concentration (IC50) on activated p38 of at most 100 nM.

Consider `Cc1c(Cl)cccc1-c1cccc(C(C(N)=O)c2c(Cl)cccc2Cl)n1` (stereo not shown) [Compound 1301], for which, at activated p38, the half-maximal inhibitory concentration (IC50) was at most 100 nM.
